# Assay: Stability of 10-nitro oleic acid (OA-NO2) in olive oil, quantified by LC-MS/MS
# Assay type: physicochemical
# Description: Stability experiments were conducted using Bertolli extra light olive oil. Methanol soluble impurities were extracted twice. […] Olive oil is highly hydrophobic and liposomes have been previously shown to stabilize nitrated linoleic acid. The composition of Olive oil used was as follows: total fat: 14 g, saturated fat: 9%, polyunsaturated fat: 9%, Monounsaturated Fat: 45%
# First, methanol-soluble substances were extracted from olive oil by applying 6 volumes of methanol per volume of oil and vortexing for a minute. The triglyceride containing fraction was obtained and the extraction was repeated. The remaining triglycerides were dried under vacuum to eliminate remaining organic solvents. […]
# At the different time points, aliquot by triplicate were obtained, fatty acids were extracted from the triglyceride matrix using a 4:1 ratio of methanol:triglyceride, diluted to a final concentration of 100 nM and quantified using liquid chromatography coupled to mass spectrometry. […] The nitrated oleic acid was detected using the multiple reaction monitoring (MRM) process in the negative ion mode performed on a 4000 QTRAP triple quadrupole (Applied Biosystems). […] The peak areas were integrated using Analyst 1.5.1 software (Applied Biosystems) and external standard curves were performed for quantification purposes.
structure (smiles),measurement,setting,value
CCCCCCCC/C(=C\CCCCCCCC(=O)O)[N+](=O)[O-] [10-nitro oleic acid],stability in olive oil (percentage of the starting concentration),"750 μM in extracted Bertolli extra light olive oil, stored in the dark at 22° C., 37° C. and 50° C., periods of up to 20 days (FIG. 1: 19 days)",stable
same,decrease in stability after 135 days,"750 μM in olive oil, samples incubated at 22° C., 37° C., after 135 days",about 15%
